According to US20230181546A1, “TREATMENT OF RESPIRATORY DISEASES WITH AMINO ACID COMPOUNDS” (Pliant Therapeutics, Inc., priority 2020, published 2023):

What follows are molecules tested against recombinant human integrin αVβ6 (Homo sapiens, UniProt P06756+P18564) (assay: Solid phase integrin αVβ6 binding assay (Examples B1, B2)). Settings: TGFβ1 LAP binding, values given in four ranges, read-out: αvβ6 Inhibition IC50 (nM) - range.
Procedure: (§1) Microplates were coated with recombinant human integrin αVβ6 (2 μg/mL) in PBS (100 μL/well 25° C., overnight). The coating solution was removed, washed with wash buffer (0.05% Tween 20: 0.5 mM MnCl2; in 1×TBS). The plate was blocked with 200 μL/well of Block Buffer (1% BSA; 5% sucrose; 0.5 mM MnCl2; in 1×TBS) at 37° C. for 2 h. Dilutions of testing compounds and recombinant TGFβ1 LAP (0.67 μg/mL) in binding buffer (0.05% BSA; 2.5% sucrose; 0.5 mM MnCl2; in 1×TBS) were added. The plate was incubated for 2 hours at 25° C., washed, and incubated for 1 hour with Biotin-Anti-hLAP. Bound antibody was detected by peroxidase-conjugated streptavidin. The IC50 values for testing compounds were calculated by a four-parameter logistic regression.
The compounds tested were compound samples prepared according to procedures described in the Synthetic Examples section, with the stereochemical purity as indicated in the Examples.
as §1, with “A third series of exemplary compounds was selected for testing in the solid phase integrin αVβ6 binding assay. The compounds tested were compound samples prepared according to procedures described in the Synthetic Examples section, with the stereochemical purity as indicated in the Examples. As in Example B1, microplates” for “Microplates”, “20;” for “20:”

Chain of recombinant human integrin αVβ6 (P06756 31-992 limits assumed): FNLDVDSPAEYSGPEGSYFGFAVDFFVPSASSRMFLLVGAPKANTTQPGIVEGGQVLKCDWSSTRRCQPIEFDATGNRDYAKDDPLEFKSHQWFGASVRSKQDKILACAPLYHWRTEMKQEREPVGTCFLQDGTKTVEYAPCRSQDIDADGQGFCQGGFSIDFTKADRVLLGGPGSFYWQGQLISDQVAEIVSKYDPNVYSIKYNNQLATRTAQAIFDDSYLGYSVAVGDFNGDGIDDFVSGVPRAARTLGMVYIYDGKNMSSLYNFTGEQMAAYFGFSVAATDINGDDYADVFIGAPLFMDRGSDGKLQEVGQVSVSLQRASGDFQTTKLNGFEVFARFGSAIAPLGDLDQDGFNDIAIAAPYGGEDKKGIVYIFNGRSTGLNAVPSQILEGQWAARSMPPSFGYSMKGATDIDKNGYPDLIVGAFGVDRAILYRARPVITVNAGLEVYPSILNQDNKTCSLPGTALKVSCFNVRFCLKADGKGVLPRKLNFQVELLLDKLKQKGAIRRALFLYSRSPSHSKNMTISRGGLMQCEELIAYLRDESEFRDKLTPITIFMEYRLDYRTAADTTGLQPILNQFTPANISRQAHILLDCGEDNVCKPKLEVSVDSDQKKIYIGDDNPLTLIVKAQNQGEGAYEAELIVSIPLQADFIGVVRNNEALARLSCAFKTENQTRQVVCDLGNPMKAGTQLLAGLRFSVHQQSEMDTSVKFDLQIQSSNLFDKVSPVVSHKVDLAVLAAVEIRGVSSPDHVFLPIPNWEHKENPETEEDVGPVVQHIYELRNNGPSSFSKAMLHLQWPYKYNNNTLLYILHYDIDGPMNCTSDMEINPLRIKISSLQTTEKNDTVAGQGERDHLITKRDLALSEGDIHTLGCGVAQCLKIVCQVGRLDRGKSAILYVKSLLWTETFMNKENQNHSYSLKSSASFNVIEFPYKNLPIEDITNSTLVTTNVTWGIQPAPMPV
Chain of recombinant human integrin αVβ6 (P18564 22-707 limits assumed): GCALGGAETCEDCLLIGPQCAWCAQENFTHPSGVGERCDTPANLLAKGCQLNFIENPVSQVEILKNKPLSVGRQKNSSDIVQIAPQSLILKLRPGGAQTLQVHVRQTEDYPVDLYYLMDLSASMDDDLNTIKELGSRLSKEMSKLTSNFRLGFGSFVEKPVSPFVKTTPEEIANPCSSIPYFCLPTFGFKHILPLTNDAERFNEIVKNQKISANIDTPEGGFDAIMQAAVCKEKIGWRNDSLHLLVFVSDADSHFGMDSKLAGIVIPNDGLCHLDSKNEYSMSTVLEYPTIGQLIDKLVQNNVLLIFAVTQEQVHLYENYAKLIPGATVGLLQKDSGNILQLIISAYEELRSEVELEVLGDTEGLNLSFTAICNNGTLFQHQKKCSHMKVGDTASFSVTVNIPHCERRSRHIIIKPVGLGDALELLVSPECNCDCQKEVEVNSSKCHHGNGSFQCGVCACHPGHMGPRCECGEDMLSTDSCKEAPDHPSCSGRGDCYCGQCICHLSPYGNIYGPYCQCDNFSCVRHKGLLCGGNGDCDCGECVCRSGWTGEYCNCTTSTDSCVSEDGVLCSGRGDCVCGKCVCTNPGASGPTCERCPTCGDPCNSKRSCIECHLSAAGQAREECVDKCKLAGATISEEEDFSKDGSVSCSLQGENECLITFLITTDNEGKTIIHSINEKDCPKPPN

Structure (SMILES) | IC50
O=C(O)[C@H](CCN(CCCCc1ccc2c(n1)NCCC2)CCOC(F)F)Nc1ncnc2ccccc12 [Compound 35, (S)-4-((2-(difluoromethoxy)ethyl) (4-(5,6,7,8-tetrahydro-1,8-naphthyridin-2-yl)butyl)amino)-2-(quinazolin-4-ylamino) butanoic acid] | < 50 nM
O=C(O)[C@H](CCN(CCCCc1ccc2c(n1)NCCC2)CCOc1ccccc1)Nc1ncc(Br)cn1 [Compound 83, (S)-2-((5-bromopyrimidin-2-yl)amino)-4-((2-phenoxyethyl) (4-(5,6,7,8-tetrahydro-1,8-naphthyridin-2-yl)butyl)amino) butanoic acid] | < 50 nM
O=C(O)[C@H](CCN(CCCCc1ccc2c(n1)NCCC2)CCOc1ccccc1)Nc1ccnc(C(F)(F)F)n1 [Compound 92, (S)-4-((2-phenoxyethyl) (4-(5,6,7,8-tetrahydro-1,8-naphthyridin-2-yl)butyl)amino)-2-((2-(rifluoromethyl)pyrimidin-4-yl)amino) butanoic acid] | < 50 nM
CO[C@H](C)CN(CCCCc1ccc2c(n1)NCCC2)CC[C@H](Nc1ncc(Br)cn1)C(=O)O [Compound 70, (S)-2-((5-bromopyrimidin-2-yl)amino)-4-(((R)-2-methoxypropyl) (4-(5,6,7,8-tetrahydro-1,8-naphthyridin-2-yl)butyl)amino) butanoic acid] | < 50 nM
Cc1ncccc1OCCN(CCCCc1ccc2c(n1)NCCC2)CC[C@H](Nc1ncnc2cccnc12)C(=O)O [Compound 54, (S)-4-((2-((2-methylpyridin-3-yl)oxy)ethyl) (4-(5,6,7,8-tetrahydro-1,8-naphthyridin-2-yl)butyl)amino)-2-(pyrido[3,2-d]pyrimidin-4-ylamino) butanoic acid] | < 50 nM

Further lines, results first:

IC50 | Structure (SMILES)
< 50 nM | COCCN(CCCCc1ccc2c(n1)NCCC2)CC[C@H](Nc1cc(C(F)F)ncn1)C(=O)O [Compound 23, (S)-2-((6-(difluoromethyl)pyrimidin-4-yl)amino)-4-((2-methoxyethyl) (4-(5,6,7,8-tetrahydro-1,8-naphthyridin-2-yl)butyl)amino) butanoic acid]
> 1000 nM | O=C(O)[C@H](CCN(CCCCc1ccc2c(n1)NCCC2)CC(F)F)Nc1ccncn1 [Compound 120, (S)-4-((2,2-difluoroethyl) (4-(5,6,7,8-tetrahydro-1,8-naphthyridin-2-yl)butyl)amino)-2-(pyrimidin-4-ylamino) butanoic acid]
